These results are taken from patent publication US6855730B2, “3-methylidenyl-2-indolinone modulators of protein kinase” (Sugen, Inc., priority 1998, dated 2005).

This experiment has as its target T1, 3T3 cell line genetically engineered to express human EGF-R (Homo sapiens, UniProt P00533).
T1 construct: expressed in transfected cells; host or cells: 3T3
Nature of the experiment: EGF-induced BrdU incorporation assay. It counts as cell-based. As to conditions: read-out: BrdU EGF driven IC50. Here is the method: The cellular/catalytic assays described herein are performed in an ELISA format. The general procedure is as follows: a compound is introduced to cells expressing the test kinase, either naturally or recombinantly, for a selected period of time after which, if the test kinase is a receptor, a ligand known to activate the receptor is added. The cells are lysed and the lysate is transferred to the wells of an ELISA plate previously coated with a specific antibody recognizing the substrate of the enzymatic phosphorylation reaction. Non-substrate components of the cell lysate are washed away and the amount of phosphorylation on the substrate is detected with an antibody specifically recognizing phosphotyrosine compared with control cells that were not contacted with a test compound. The cellular/biologic assays described herein measure the amount of DNA made in response to activation of a test kinase, which is a general measure of a proliferative response. The general procedure for this assay is as follows: a compound is introduced to cells expressing the test kinase, either naturally or recombinantly, for a selected period of time after which, if the test kinase is a receptor, a ligand known to activate the receptor is added. After incubation at least overnight, a DNA labeling reagent such as Bromodeoxyuridine (BrdU) or 3H-thymidine is added. The amount of labeled DNA is detected with either an anti-BrdU antibody or by measuring radioactivity and is compared to control cells not contacted with a test compound. […]
Protocol • (1) Cells are seeded at 8000 cells/well in 10% CS, 2mM Gin in DMEM, in a 96 well plate. Cells are incubated overnight at 37° C. in 5% CO2. • (2) After 24 hours, the cells are washed with PBS, and then are serum starved in serum free medium (0% CS DMEM with 0.1% BSA) for 24 hours. • (3) On day 3, ligand (EGF, 2 nM, prepared in DMEM with 0.1% BSA) and test compounds are added to the cells simultaneously. The negative control wells receive serum free DMEM with 0.1% BSA only, the positive control cells receive the ligand (EGF) but no test compound. Test compounds are prepared in serum free DMEM with ligand in a 96 well plate, and serially diluted for 7 test concentrations. • (4) After 20 hours of ligand activation, diluted BrdU labeling reagent (1:100 in DMEM, 0.1% BSA) is added and the cells are incubated with BrdU (final concentration=10 μM) for 1.5 hours. • (5) After incubation with labeling reagent, the medium is removed by decanting and tapping the inverted plate on a paper towel. FixDenat solution is added (50 μl/well) and the plates are incubated at room temperature for 45 minutes on a plate shaker. • (6) The FixDenat solution is thoroughly removed by decanting and tapping the inverted plate on a paper towel. Milk is added (5% dehydrated milk in PBS, 200 μl/well) as a blocking solution and the plate is incubated for 30 minutes at room temperature on a plate shaker. • (7) The blocking solution is removed by decanting and the wells are washed once with PBS. Anti-BrdU-POD solution (1:100 dilution in PBS, 1% BSA) is added (100 μ/well) and the plate is incubated for 90 minutes at room temperature on a plate shaker. • (8) The antibody conjugate is thoroughly removed by decanting and rinsing the wells 5 times with PBS, and the plate is dried by inverting and tapping on a paper towel. • (9) TMB substrate solution is added (100 μl/well) and incubated for 20 minutes at room temperature on a plate shaker until color development is sufficient for photometric detection. • (10) The absorbance of the samples are measured at 410 nm (in “dual wavelength” mode with a filter reading at 490 nm, as a reference wavelength) on a Dynatech ELISA plate reader.
On the technique in general: Uptake of a labelled nucleoside into DNA is a usual measure of proliferation.
In general, IC50 refers to the point on the concentration scale where inhibition reaches its midpoint. Regarding `COc1ccc(C=C2C(=O)Nc3cc(NC(C)=O)ccc32)cc1-c1cccc(NC(C)=O)c1` (mixture of isomers) [Example 63, N-[3-(3′-Acetylamino-6-methoxybiphenyl-3-ylmethylene)-2-oxo-2,3-dihydro-1H-indol-6-yl]-acetamide], the half-inhibitory concentration (IC50) is 30.5 µM.

As for `CC1(C)CCc2cc(C=C3C(=O)Nc4ccc(Br)cc43)ccc2O1` (racemic) [Example 34, 5-Bromo-3-(2,2-dimethylchroman-6-ylmethylene)-1,3-dihydroindol-2-one], the IC50 stood at 11 µM.

Regarding `COc1c(C(C)C)cc(/C=C2/C(=O)Nc3cc(NC(C)=O)ccc32)cc1C(C)C` [Example 3, N-[3-(3,5-Diisopropyl-4-methoxybenzylidene)-2-oxo-2,3-dihydro-1H-indol-6-yl]-acetamide], the IC50 turned out to be 11 µM.

Consider `COc1c(C(C)C)cc(/C=C2/C(=O)Nc3cc(O)ccc32)cc1C(C)C` [Example 4, 3-(3,5-Diisopropyl-4-methoxybenzylidene)-6-hydroxy-1,3-dihydroindol-2-one], for which the half-inhibitory concentration (IC50) was found to be 26.6 µM.

On to `COc1c(C(C)C)cc(/C=C2/C(=O)Nc3ccc(C(C)=O)cc32)cc1C(C)C` [Example 5, 5-Acetyl-3-(3,5-diisopropyl-4-methoxybenzylidene)-1,3dihydroindol-2-one], for which the IC50 stood at 7.2 µM.

In the case of `COC(=O)c1ccc2c(c1)/C(=C\c1cc(C(C)C)c(OC)c(C(C)C)c1)C(=O)N2` [Example 6, 3-(3,5-Diisopropyl-4-methoxybenzylidene)-2-oxo-2,3-dihydro-1H-indole-5-carboxylic acid methyl ester], the half-maximal inhibitory concentration (IC50) was 12 µM.

As for `COc1ccc(/C=C2/C(=O)Nc3ccccc32)cc1C(C)C` [Example 7, 3-(3-Isopropyl-4-methoxybenzylidene)-1,3-dihydroindol-2-one], the 50% inhibitory concentration (IC50) stood at 24.5 µM.

Consider `COc1cc(C)c(C=C2C(=O)Nc3ccccc32)cc1C(C)C` [Example 8, 3-(5-Isopropyl-4-methoxy-2-methylbenzylidene)-1,3-dihydroindol-2-one], for which the IC50 is greater than 50 µM.

`COc1cc(C)c(C=C2C(=O)Nc3ccc(Cl)cc32)cc1C(C)C` [Example 9, 5-Chloro-3-(5-isopropyl-4-methoxy-2-methylbenzylidene)-1,3-dihydroindol-2-one]: the IC50 turned out to be 11 µM.

As for `COc1ccc(/C=C2/C(=O)Nc3ccccc32)cc1C1CCCC1` [Example 10, 3-(3-Cyclopentyl-4-methoxybenzylidene)-1,3-dihydroindol-2-one], the IC50 was determined as 29 µM.

As for `COc1ccc(/C=C2/C(=O)Nc3ccc(F)cc32)cc1C1CCCC1` [Example 11, 3-(3-Cyclopentyl-4-methoxybenzylidene)-5-fluoro-1,3-dihydroindol-2-one], the IC50 is 23.3 µM.

As to `COc1ccc(/C=C2/C(=O)Nc3ccccc32)cc1C1CCCCC1` [Example 12, 3-(3-Cyclohexyl-4-methoxybenzylidene)-1,3-dihydroindol-2-one], the half-inhibitory concentration (IC50) amounted to 30.6 µM.

Take `COc1ccc(/C=C2/C(=O)Nc3ccc(Br)cc32)cc1-c1ccccc1` [Example 13, 5-Bromo-3-(6-methoxybiphenyl-3-ylmethylene)-1,3-dihydroindol-2-one]: the IC50 was determined as 26.6 µM.

For the molecule `CC1(C)CCc2cc(/C=C3/C(=O)Nc4ccc(Cl)cc43)ccc2O1` [Example 15, 5-Chloro-3-(2,2-dimethyl-chroman-6-ylmethylene)-1,3-dihydroindol-2-one], the IC50 amounted to 7.8 µM.

Take `CC(=O)Nc1ccc2c(c1)NC(=O)/C2=C/c1ccc(OCCN2CCOCC2)c(C2CCCCC2)c1` [Example 16, N-{3-[3-Cyclohexyl-4-(2-morpholin-4-ylethoxy)-benzylidene]-2-oxo-2,3-dihydro-1H-indol-6-yl}-acetamide]: the IC50 amounted to 6.4 µM.

As to `COc1ccc2c(c1)/C(=C\c1cc(C(C)C)c(OC)c(C(C)C)c1)C(=O)N2` [Example 17, 3-(3,5-Diisopropyl-4-methoxybenzylidene)-5-methoxy-1,3-dihydroindol-2-one], the IC50 worked out at 7.4 µM.

Consider `COc1ccc(/C=C2/C(=O)Nc3cc(NC(C)=O)ccc32)cc1-c1ccsc1` [Example 18, N-[3-(4-Methoxy-3-thiophene-3-ylbenzylidene)-2-oxo-2,3-dihydro-1H-indol-6-yl]-acetamide], for which the IC50 is greater than 50 µM.

Turning to `COc1c(C(C)C)cc(/C=C2/C(=O)Nc3ccc(C)cc32)cc1C(C)C` [Example 19, 3-(3,5-Diisopropyl-4-methoxybenzylidene)-5-methyl-1,3-dihydroindol-2-one], the IC50 was 9.3 µM.

As for `COc1c(C(C)C)cc(/C=C2/C(=O)Nc3ccc(N)cc32)cc1C(C)C` [Example 20, 5-Amino-3-(3,5-diisopropyl-4-methoxy-benzylidene)-1,3-dihydroindol-2-one], the IC50 worked out at 30 µM.

In the case of `COc1c(C)cc(/C=C2/C(=O)Nc3ccc(Cl)cc32)cc1C` [Example 21, 5-Chloro-3-(4-methoxy-3,5-dimethylbenzylidene)-1,3-dihydroindol-2-one], the IC50 came to 8 µM.

In the case of `CC1(C)CCc2cc(/C=C3/C(=O)Nc4ccc(F)cc43)ccc2O1` [Example 23, 3-(2,2-Dimethylchroman-6-ylmethylene)-5-fluoro-1,3-dihydroindol-2-one], the IC50 stood at 32.9 µM.

For the molecule `CC(C)c1cc(/C=C2/C(=O)Nc3ccc(Cl)cc32)cc(C(C)C)c1OCCN1CCOCC1` [Example 24, 5-chloro-3-[3,5-diisopropyl-4-(2-morpholin-4-ylethoxy)-benzylidene]-1,3-dihydroindol-2-one], the IC50 stood at 7.5 µM.

For `COc1ccc(/C=C2/C(=O)Nc3ccc(CCN4CCOCC4)cc32)cc1-c1ccsc1` [Example 26, 3-(4-Methoxy-3-thiophen-3-ylbenzylidene)-5-(2-morpholin-4-yl-ethyl)-1,3-dihydroindol-2-one], the IC50 was greater than 50 µM.

In the case of `COc1cc(C)c(C=C2C(=O)Nc3cc(NC(C)=O)ccc32)cc1C(C)C` [Example 27, N-[3-(5-Isopropyl-4-methoxy-2-methyl-benzylidene)-2-oxo-2,3-dihydro-1H-indol-6-yl]-acetamide], the IC50 came to 26.8 µM.

As for `COc1ccc(C=C2C(=O)Nc3ccccc32)cc1-c1cccc(NC(C)=O)c1` [Example 29, N-[2′-Methoxy-5′-(2-oxo-1,2-dihydroindol-3-ylidenemethyl)-biphenyl-3-yl]-acetamide], the IC50 came out at 15.2 µM.

Turning to `COc1cc(C)c(/C=C2/C(=O)Nc3ccc(F)cc32)cc1C(C)C` [Example 30, 5-Fluoro-3-(5-isopropyl-4-methoxy-2-methyl-benzylidene)-1,3-dihydroindol-2-one], the IC50 is 30.3 µM.

For `COc1ccc(/C=C2/C(=O)Nc3cc(NC(C)=O)ccc32)cc1-c1cccs1` [Example 31, N-[3-(4-Methoxy-3-thiophen-2-ylbenzylidene)-2-oxo-2,3-dihydro-1H-indol-6-yl]-acetamide], the IC50 turned out to be 38.6 µM.

As for `COc1ccc(/C=C2/C(=O)Nc3ccccc32)cc1-c1ccsc1` [Example 35, 3-(4-Methoxy-3-thiophen-3-ylbenzylidene)-1,3-dihydroindol-2-one], the IC50 stood at 28.1 µM.

On to `COc1cc(C)c(/C=C2/C(=O)Nc3ccc(Br)cc32)cc1C(C)C` [Example 36, 5-Bromo-3-(5-isopropyl-4-methoxy-2-methyl-benzylidene)-1,3-dihydroindol-2-one], for which the concentration for half-maximal inhibition (IC50) was found to be 31 µM.

For `COc1cc(/C=C2/C(=O)Nc3ccccc32)c(-c2cccs2)cc1OC` [Example 39, 3-(4,5-Dimethoxy-2-thiophen-2-ylbenzylidene)-1,3-dihydroindol-2-one], the 50% inhibitory concentration (IC50) is 16.2 µM.

Turning to `CC(=O)Nc1ccc2c(c1)NC(=O)/C2=C/c1ccc(OCCN2CCOCC2)c(-c2cccs2)c1` [Example 40, N-{3-[4-(2-Morpholin-4-ylethoxy)-3-thiophen-2-ylbenzylidene]-2-oxo-2,3-dihydro-1H-indol-6-yl}-acetamide], the IC50 turned out to be 28.6 µM.
